From BindingDB's records for doi:10.1016/0960-894X(95)00091-7 (1995)

Key:
[1] = Compound was tested for its affinity towards Alpha-2 adrenergic receptor
[2] = Compound was tested for its ability inhibit forskolin-stimulated activity of adenylate cyclase coupled to human 5-HT 1D-beta receptor in CHO-K1 cells
[3] = Compound was tested for its ability inhibit forskolin-stimulated activity of adenylate cyclase coupled to human 5-hydroxytryptamine 1D receptor beta in CHO-K1 cells; value ranges from 2.8-6.5
[4] = Compound was tested for its ability inhibit forskolin-stimulated activity of adenylate cyclase coupled to human 5-hydroxytryptamine 1D receptor beta in CHO-K1 cells; value ranges from 0.24-0.55
[5] = Binding affinity towards cloned human 5-hydroxytryptamine 1D receptor beta was determined
[6] = Compound was tested for its ability inhibit forskolin-stimulated activity of adenylate cyclase coupled to human 5-HT 1D-beta receptor in CHO-K1 cells; remark: listed apart in the source
[7] = Compound was tested for its ability inhibit forskolin-stimulated activity of adenylate cyclase coupled to human 5-hydroxytryptamine 1D receptor beta in CHO-K1 cells; value ranges from 0.24-0.55; remark: listed apart in the source

Cc1ccccc1N1CCN(C(=O)COc2ccc3[nH]cc(CCN)c3c2)CC1
IC50 [1]: > 10000 nM

CCCCCCCCCOc1ccc2[nH]cc(CCN)c2c1 [2-(5-Nonyloxy-1H-indol-3-yl)-ethylamine]
EC50 [2]: 68 nM

NCCc1c[nH]c2ccc(OCC(=O)N3CCN(c4cccc5ccccc45)CC3)cc12 [2-[3-(2-Amino-ethyl)-1H-indol-5-yloxy]-1-(4-naphthalen-1-yl-piperazin-1-yl)-ethanone]
EC50 [3]: 2.8 nM | Ki [4]: 0.52 nM | IC50 [1]: > 1000 nM

NCCc1c[nH]c2ccc(OCC(=O)N3CCN(c4ccccc4)CC3)cc12 [2-[3-(2-Amino-ethyl)-1H-indol-5-yloxy]-1-(4-phenyl-piperazin-1-yl)-ethanone]
Ki [5]: 0.6 nM | EC50 [6]: 0.45 nM

COc1cccc(N2CCN(C(=O)COc3ccc4[nH]cc(CCN)c4c3)CC2)c1 [2-[3-(2-Amino-ethyl)-1H-indol-5-yloxy]-1-[4-(3-methoxy-phenyl)-piperazin-1-yl]-ethanone]
EC50 [7]: 0.24 nM | Ki [5]: 0.4 nM
